From patent US8247211B2, “Glycopeptide antibiotics” (American Cyanamid Company, priority 2001, dated 2012)
Converted amounts (≈) assume the structure as drawn.

What was measured:
Streptococcus sp. = assay: In vitro antibacterial evaluation: minimum inhibitory concentration (MIC), broth dilution method; format: cell-based
Summary of the method: (§1)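 Susceptibility determined by NCCLS-recommended broth dilution (M7-A2), Muller-Hinton II […]. Concentration span 64-0.06 μg/mL, inoculum 5×10^5 CFU/mL. Isolates include strains resistant to methicillin, penicillin and/or vancomycin.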

Staphylococcus sp. = assay: as above; format: cell-based; details: broth dilution, 18 hours at 35° C.
Summary of the method: as §1

Enterococcus sp. = assay: as above; format: cell-based
Summary of the method: as §1

Escherichia coli = assay: as above; format: cell-based
Summary of the method: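 Test strains, among them recent clinical isolates carrying methicillin, penicillin and/or vancomycin resistance, were inoculated at 5×10^5 CFU/mL. A broth dilution series spanning 64-0.06 μg/mL in Muller-Hinton II […] (NCCLS M7-A2) defined the MIC as the lowest growth-inhibiting concentration.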

[1] = system: Staphylococcus aureus-SMITH (GC 4543); assay: Acute lethal infection in mice (ED50); format: in vivo; details: female CD-1 mice, intraperitoneal challenge, intravenous dose 30 min. after infection, 7 day survival ratios
Summary of the method: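 Bacteria suspended in Trypticase Soy Broth or hog gastric mucin are injected intraperitoneally into female CD-1 mice at a dose killing untreated animals within 24-48 hr. Thirty minutes later, test agent is administered intravenously. Survival at day 7 is scored.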

With CC(c1ccccc1)C1NC(=O)CNC(=O)C(CO)NC(=O)C(CC2CN(Cc3ccccc3)C(=N)N2C2OC(CO)C(O)C(O)C2O)NC(=O)C(CC2CNC(=N)N2)NC(=O)C(Cc2ccc(OC3OC(CO)C(OC4OC5COC6(OC5C(O)C4O)C4CC5CC(C4)CC6C5)C(O)C3O)cc2)NC1=O (stereo not drawn) [Example 80, Cyclo[3-(2-iminoimidazolidin-4-yl)alanyl-3-(1-benzyl-3-hexopyranosyl-2-iminoimidazolidin-4-yl)alanylserylglycyl-β-methylphenylalanyl-O-[4-O-[4,6-O-(2-adamantylidene)hexopyranosyl]hexopyranosyl]tyrosyl]] the “MIC Streptococcus agalactiae (GC 4564)” value (Streptococcus sp.; Streptococcus agalactiae (GC 4564), broth dilution, 18 hours at 35° C.) was 8 µg/mL (≈ 5.38 µM), the “MIC Streptococcus pneumoniae (ATCC 6301)” value (Streptococcus sp.; Streptococcus pneumoniae (ATCC 6301), broth dilution, 18 hours at 35° C.) was 8 µg/mL (≈ 5.38 µM) and the “MIC Streptococcus pneumoniae (GC 1894)” value (Streptococcus sp.; Streptococcus pneumoniae (GC 1894), broth dilution, 18 hours at 35° C.) was 4 µg/mL (≈ 2.69 µM). The “MIC Streptococcus pneumoniae (GC 4565)” value (Streptococcus sp.; Streptococcus pneumoniae (GC 4565), broth dilution, 18 hours at 35° C.) was 16 µg/mL (≈ 10.8 µM), the “MIC Streptococcus pyogenes (GC 4563)” value (Streptococcus sp.; Streptococcus pyogenes (GC 4563), broth dilution, 18 hours at 35° C.) was 8 µg/mL (≈ 5.38 µM) and the “MIC Streptococcus pneumoniae (ATCC 6301)” value (Streptococcus sp.; strain ATCC 6301) was 8 µg/mL (≈ 5.38 µM). The “MIC Streptococcus pneumoniae (GC 1894)” value (Streptococcus sp.; strain GC 1894) was 4 µg/mL (≈ 2.69 µM), the “MIC Streptococcus pyogenes (GC 4563)” value (Streptococcus sp.; strain GC 4563) was 8 µg/mL (≈ 5.38 µM) and the “MIC Streptococcus agalactiae (GC 4564)” value (Streptococcus sp.; strain GC 4564) was 8 µg/mL (≈ 5.38 µM). The “MIC Streptococcus pneumoniae (GC 4565)” value (Streptococcus sp.; strain GC 4565) was 16 µg/mL (≈ 10.8 µM), the “MIC Coagulase Negative Staphylococcus (GC 4547)” value (Staphylococcus sp.) was 32 µg/mL (≈ 21.5 µM) and the “MIC Coagulase Negative Staphylococcus (GC 4548)” value (Staphylococcus sp.) was 32 µg/mL (≈ 21.5 µM). For the same molecule, the “MIC Coagulase Negative Staphylococcus (GC 4549)” value (Staphylococcus sp.) was 32 µg/mL (≈ 21.5 µM), the “MIC Coagulase Negative Staphylococcus (GC 4551)” value (Staphylococcus sp.) was 32 µg/mL (≈ 21.5 µM) and the “MIC Coagulase Negative Staphylococcus (GC 6257)” value (Staphylococcus sp.) was 8 µg/mL (≈ 5.38 µM). The “MIC Staphylococcus aureus (ATCC 29213)” value (Staphylococcus sp.) was 32 µg/mL (≈ 21.5 µM), the “MIC Staphylococcus aureus (GC 1131)” value (Staphylococcus sp.) was 32 µg/mL (≈ 21.5 µM) and the “MIC Staphylococcus aureus (GC 3051)” value (Staphylococcus sp.) was 32 µg/mL (≈ 21.5 µM). For the same molecule, the “MIC Staphylococcus aureus (GC 3053)” value (Staphylococcus sp.) was 64 µg/mL (≈ 43.1 µM), the “MIC Staphylococcus aureus (GC 4541)” value (Staphylococcus sp.) was 32 µg/mL (≈ 21.5 µM) and the “MIC Staphylococcus aureus (GC 4542)” value (Staphylococcus sp.) was 32 µg/mL (≈ 21.5 µM). For the same molecule, the “MIC Staphylococcus aureus (GC 4544)” value (Staphylococcus sp.) was 32 µg/mL (≈ 21.5 µM), the “MIC Staphylococcus aureus (GC 4545)” value (Staphylococcus sp.) was 32 µg/mL (≈ 21.5 µM) and the “MIC Staphylococcus aureus SMITH (GC 4543)” value (Staphylococcus sp.) was 32 µg/mL (≈ 21.5 µM). For the same molecule, the “MIC Staphylococcus haemolyticus (GC 4546)” value (Staphylococcus sp.) was 32 µg/mL (≈ 21.5 µM), the “MIC Staphylococcus aureus-SMITH (GC 4543)” value (Staphylococcus sp.; strain SMITH GC 4543) was 32 µg/mL (≈ 21.5 µM) and the “MIC Enterococcus faecalis (GC 2242)” value (Enterococcus sp.; Enterococcus faecalis (GC 2242), broth dilution, 18 hours at 35° C.) was 32 µg/mL (≈ 21.5 µM). The “MIC Enterococcus faecalis (GC 2691)” value (Enterococcus sp.; Enterococcus faecalis (GC 2691), broth dilution, 18 hours at 35° C.) was 64 µg/mL (≈ 43.1 µM), the “MIC Enterococcus faecalis (GC 3059)” value (Enterococcus sp.; Enterococcus faecalis (GC 3059), broth dilution, 18 hours at 35° C.) was 64 µg/mL (≈ 43.1 µM) and the “MIC Enterococcus faecalis (ATCC 29212)” value (Enterococcus sp.; strain ATCC 29212) was 64 µg/mL (≈ 43.1 µM). For the same molecule, the “MIC Enterococcus faecalis (GC 2242)” value (Enterococcus sp.; strain GC 2242) was 32 µg/mL (≈ 21.5 µM), the “MIC Enterococcus faecium (GC 2243)” value (Enterococcus sp.; strain GC 2243) was 32 µg/mL (≈ 21.5 µM) and the “MIC Enterococcus faecalis (GC 2691)” value (Enterococcus sp.; strain GC 2691) was 64 µg/mL (≈ 43.1 µM). For the same molecule, the “MIC Enterococcus faecalis (GC 3059)” value (Enterococcus sp.; strain GC 3059) was 64 µg/mL (≈ 43.1 µM), the “MIC Enterococcus faecalis (GC 4552)” value (Enterococcus sp.; strain GC 4552) was 64 µg/mL (≈ 43.1 µM) and the “MIC Enterococcus faecalis (GC 4553)” value (Enterococcus sp.; strain GC 4553) was 32 µg/mL (≈ 21.5 µM). For the same molecule, the “MIC Enterococcus faecalis (GC 4554)” value (Enterococcus sp.; strain GC 4554) was 64 µg/mL (≈ 43.1 µM), the “MIC Enterococcus faecium (GC 4556)” value (Enterococcus sp.; strain GC 4556) was 64 µg/mL (≈ 43.1 µM) and the “MIC Enterococcus faecium (GC 4557)” value (Enterococcus sp.; strain GC 4557) was 16 µg/mL (≈ 10.8 µM). The “MIC Enterococcus avium (GC 4558)” value (Enterococcus sp.; strain GC 4558) was 32 µg/mL (≈ 21.5 µM), the “MIC Enterococcus faecalis (GC 6189)” value (Enterococcus sp.; strain GC 6189) was 64 µg/mL (≈ 43.1 µM) and the “MIC Escherichia coli (ATCC 25922)” value (Escherichia coli; strain ATCC 25922) was over 64 µg/mL. For the same molecule, the “MIC Escherichia coli (GC 4559)” value (Escherichia coli; strain GC 4559) was over 64 µg/mL, the “MIC Escherichia coli (GC 4560)” value (Escherichia coli; strain GC 4560) was 8 µg/mL (≈ 5.38 µM) and the “median effective dose (ED50), Staphylococcus aureus-SMITH (GC 4543)” value [1] was over 8.
